# From patent US20200016136A1 (VIIV HEALTHCARE UK (NO. 5) LIMITED, priority 2017, published 2020)
# System: NL-RLuc virus (recombinant NL4-3 HIV with Renilla Luciferase gene)
# Assay: Inhibition of HIV replication (NL-RLuc virus in MT-2 cells, luciferase readout)
# Assay type: cell-based, Human immunodeficiency virus (HIV)
# Conditions: MT2, 120 h
# How it was run: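 MT-2 cells infected with NL4-3-derived virus carrying Renilla luciferase in place of part of nef, grown 5 days with serial compound dilutions in RPMI 1640/10% FBS. Virus growth read as luciferase expression. EC50 from median effect equation, at least 2 experiments.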
compound,measurement,value
"Cc1nc(C)c([C@H](OC(C)(C)C)C(=O)O)c(N2CCC(C)(C)CC2)c1-c1ccc2c(c1)CCN(c1cc(N3CCC(N4CCOCC4)CC3)ncn1)C2 [Example 134, (S)-2-(tert-Butoxy)-2-(4-(4,4-dimethylpiperidin-1-yl)-2,6-dimethyl-5-(2-(6-(4-morpholinopiperidin-1-yl)pyrimidin-4-yl)-1,2,3,4-tetrahydroisoquinolin-6-yl)pyridin-3-yl)acetic Acid]",EC50,4 nM
"Cc1nc(C)c([C@H](OC(C)(C)C)C(=O)O)c(N2CCC(C)(C)CC2)c1-c1ccc2c(c1)CCN(c1nccc(-c3cccnc3)n1)C2 [Example 105, (S)-2-(tert-Butoxy)-2-(4-(4,4-dimethylpiperidin-1-yl)-2,6-dimethyl-5-(2-(4-(pyridin-3-yl)pyrimidin-2-yl)-1,2,3,4-tetrahydroisoquinolin-6-yl)pyridin-3-yl)acetic Acid]",EC50,1 nM
"Cc1nnc(-c2cc(N3CCc4cc(-c5c(C)nc(C)c([C@H](OC(C)(C)C)C(=O)O)c5N5CCC(C)(C)CC5)ccc4C3)ncn2)o1 [Example 131, (S)-2-(tert-Butoxy)-2-(4-(4,4-dimethylpiperidin-1-yl)-2,6-dimethyl-5-(2-(6-(5-methyl-1,3,4-oxadiazol-2-yl)pyrimidin-4-yl)-1,2,3,4-tetrahydroisoquinolin-6-yl)pyridin-3-yl)acetic Acid]",EC50,4 nM
"Cc1cccc(Cl)c1CN1CCc2cc(-c3c(NCCCN(C)C)nc(C)c([C@H](OC(C)(C)C)C(=O)O)c3N3CCC(C)(C)CC3)ccc2C1 [Example 9, (S)-2-(tert-Butoxy)-2-(5-(2-(2-chloro-6-methylbenzyl)-1,2,3,4-tetrahydroisoquinolin-6-yl)-6-((3-(dimethylamino)propyl)amino)-4-(4,4-dimethylpiperidin-1-yl)-2-methylpyridin-3-yl)acetic Acid]",EC50,2 nM
"Cc1nc(C)c([C@H](OC(C)(C)C)C(=O)O)c(N2CCC(C)(C)CC2)c1-c1ccc2c(c1)CCN(c1nccc(N3CCCC3)n1)C2 [Example 21, (2S)-2-(tert-Butoxy)-2-[4-(4,4-dimethylpiperidin-1-yl)-2,6-dimethyl-5-{2-[4-(pyrrolidin-1-yl)pyrimidin-2-yl]-1,2,3,4-tetrahydroisoquinolin-6-yl}pyridin-3-yl]acetic Acid]",EC50,2 nM
"Cc1nc(C)c([C@H](OC(C)(C)C)C(=O)O)c(N2CCC(C)(C)CC2)c1-c1ccc2c(c1)CCN(c1cc(N3CC(C)CC(C)C3)ncn1)C2 (stereo partly drawn) [Example 137, (2S)-2-(tert-Butoxy)-2-(4-(4,4-dimethylpiperidin-1-yl)-5-(2-(6-(3,5-dimethylpiperidin-1-yl)pyrimidin-4-yl)-1,2,3,4-tetrahydroisoquinolin-6-yl)-2,6-dimethylpyridin-3-yl)acetic Acid]",EC50,7 nM
"CCOc1ncnc(N2CCc3cc(-c4c(C)nc(C)c([C@H](OC(C)(C)C)C(=O)O)c4N4CCC(C)(C)CC4)ccc3C2)c1C [Example 78, (S)-2-(tert-Butoxy)-2-(4-(4,4-dimethylpiperidin-1-yl)-5-(2-(6-ethoxy-5-methylpyrimidin-4-yl)-1,2,3,4-tetrahydroisoquinolin-6-yl)-2,6-dimethylpyridin-3-yl)acetic Acid]",EC50,5 nM
"Cc1nc(C)c([C@H](OC(C)(C)C)C(=O)O)c(N2CCC(C)(C)CC2)c1-c1ccc2c(c1)CCN(c1cc(N3CCOCC3)cc(F)n1)C2 [Example 87, (S)-2-(tert-Butoxy)-2-(4-(4,4-dimethylpiperidin-1-yl)-5-(2-(6-fluoro-4-morpholinopyridin-2-yl)-1,2,3,4-tetrahydroisoquinolin-6-yl)-2,6-dimethylpyridin-3-yl)acetic Acid]",EC50,5 nM
"Cc1nc(C)c([C@H](OC(C)(C)C)C(=O)O)c(N2CCC(C)(C)CC2)c1-c1ccc2c(c1)CCN(c1ccnc(N3C4CCC3COC4)n1)C2 [Example 31, (2S)-2-(tert-Butoxy)-2-[4-(4,4-dimethylpiperidin-1-yl)-2,6-dimethyl-5-[2-(2-{3-oxa-8-azabicyclo[3.2.1]octan-8-yl}pyrimidin-4-yl)-1,2,3,4-tetrahydroisoquinolin-6-yl]pyridin-3-yl]acetic Acid]",EC50,2 nM
"COc1c(N2CCOCC2)ncnc1N1CCc2cc(-c3c(C)nc(C)c([C@H](OC(C)(C)C)C(=O)O)c3N3CCC(C)(C)CC3)ccc2C1 [Example 67, (S)-2-(tert-Butoxy)-2-(4-(4,4-dimethylpiperidin-1-yl)-5-(2-(5-methoxy-6-morpholinopyrimidin-4-yl)-1,2,3,4-tetrahydroisoquinolin-6-yl)-2,6-dimethylpyridin-3-yl)acetic Acid]",EC50,2 nM
"CC1(C)CCN(c2c(-c3ccc4c(c3)CCN(c3ncnc5c3oc3ccccc35)C4)c(CNCC3CCOCC3)nc(Cl)c2[C@H](OC(C)(C)C)C(=O)O)CC1 [Example 111, (S)-2-(5-(2-(Benzofuro[3,2-d]pyrimidin-4-yl)-1,2,3,4-tetrahydroisoquinolin-6-yl)-2-chloro-4-(4,4-dimethylpiperidin-1-yl)-6-((((tetrahydro-2H-pyran-4-yl)methyl)amino)methyl)pyridin-3-yl)-2-(tert-butoxy)acetic Acid]",EC50,0.7 nM
"Cc1cccc(Cl)c1CN1CCc2cc(-c3c(NCc4ccn[nH]4)nc(C)c([C@H](OC(C)(C)C)C(=O)O)c3N3CCC(C)(C)CC3)ccc2C1 [Example 6, (S)-2-(6-(((1H-Pyrazol-5-yl)methyl)amino)-5-(2-(2-chloro-6-methylbenzyl)-1,2,3,4-tetrahydroisoquinolin-6-yl)-4-(4,4-dimethylpiperidin-1-yl)-2-methylpyridin-3-yl)-2-(tert-butoxy)acetic Acid]",EC50,18 nM
"CCC(C)(C)O[C@H](C(=O)O)c1c(C)ncc(-c2ccc3c(c2)CCN(Cc2c(C)cccc2Cl)C3)c1N1CCC(C)(C)CC1 [Example 53, (2S)-2-(5-{2-[(2-Chloro-6-methylphenyl)methyl]-1,2,3,4-tetrahydroisoquinolin-6-yl}-4-(4,4-dimethylpiperidin-1-yl)-2-methylpyridin-3-yl)-2-[(2-methylbutan-2-yl)oxy]acetic Acid]",EC50,6 nM
"Cc1cc(F)ccc1CN1CCc2cc(-c3cnc(Cl)c([C@H](OC(C)(C)C)C(=O)O)c3N3CCC(C)(C)CC3)ccc2C1 [Example 113, (S)-2-(tert-Butoxy)-2-(2-chloro-4-(4,4-dimethylpiperidin-1-yl)-5-(2-(4-fluoro-2-methylbenzyl)-1,2,3,4-tetrahydroisoquinolin-6-yl)pyridin-3-yl)acetic Acid]",EC50,3 nM
"CN(Cc1nc(Cl)c([C@H](OC(C)(C)C)C(=O)O)c(N2CCC(C)(C)CC2)c1-c1ccc2c(c1)CCN(c1ncnc3c1oc1ccccc13)C2)CC1CCOCC1 [Example 112, (S)-2-(5-(2-(Benzofuro[3,2-d]pyrimidin-4-yl)-1,2,3,4-tetrahydroisoquinolin-6-yl)-2-chloro-4-(4,4-dimethylpiperidin-1-yl)-6-((methyl((tetrahydro-2H-pyran-4-yl)methyl)amino)methyl)pyridin-3-yl)-2-(tert-butoxy)acetic Acid]",EC50,0.3 nM
"Cc1nc(C)c([C@H](OC(C)(C)C)C(=O)O)c(N2CCC(C)(C)CC2)c1-c1ccc2c(c1)CCN(c1ncnc3c1oc1ccc(Cl)cc13)C2 [Example 122, (S)-2-(tert-Butoxy)-2-(5-(2-(8-chlorobenzofuro[3,2-d]pyrimidin-4-yl)-1,2,3,4-tetrahydroisoquinolin-6-yl)-4-(4,4-dimethylpiperidin-1-yl)-2,6-dimethylpyridin-3-yl)acetic Acid]",EC50,5 nM
"Cc1nc(C)c([C@H](OC(C)(C)C)C(=O)O)c(N2CCC(C)(C)CC2)c1-c1ccc2c(c1)CCN(c1nc(Cl)nc(N3CCOCC3)n1)C2 [Example 58, (S)-2-(tert-Butoxy)-2-(5-(2-(4-chloro-6-morpholino-1,3,5-triazin-2-yl)-1,2,3,4-tetrahydroisoquinolin-6-yl)-4-(4,4-dimethylpiperidin-1-yl)-2,6-dimethylpyridin-3-yl)acetic Acid]",EC50,8 nM
"CCOc1cc(N2CCc3cc(-c4c(C)nc(C)c([C@H](OC(C)(C)C)C(=O)O)c4N4CCC(C)(C)CC4)ccc3C2)nc(C)n1 [Example 65, (S)-2-(tert-Butoxy)-2-(4-(4,4-dimethylpiperidin-1-yl)-5-(2-(6-ethoxy-2-methylpyrimidin-4-yl)-1,2,3,4-tetrahydroisoquinolin-6-yl)-2,6-dimethylpyridin-3-yl)acetic Acid]",EC50,19 nM
"Cc1nc(C)c([C@H](OC(C)(C)C)C(=O)O)c(N2CCC(C)(C)CC2)c1-c1ccc2c(c1)CCN(c1ccnc(N3CCC(F)(F)CC3)n1)C2 [Example 76, (S)-2-(tert-Butoxy)-2-(5-(2-(2-(4,4-difluoropiperidin-1-yl)pyrimidin-4-yl)-1,2,3,4-tetrahydroisoquinolin-6-yl)-4-(4,4-dimethylpiperidin-1-yl)-2,6-dimethylpyridin-3-yl)acetic Acid]",EC50,3 nM
"Cc1nc(C)c([C@H](OC(C)(C)C)C(=O)O)c(N2CCC(C)(C)CC2)c1-c1ccc2c(c1)CCN(c1nccc(N3CCC3)n1)C2 [Example 19, (2S)-2-(5-{2-[4-(Azetidin-1-yl)pyrimidin-2-yl]-1,2,3,4-tetrahydroisoquinolin-6-yl}-4-(4,4-dimethylpiperidin-1-yl)-2,6-dimethylpyridin-3-yl)-2-(tert-butoxy)acetic Acid]",EC50,1 nM
"Cc1cccc(Cl)c1CN1CCc2cc(-c3c(C(=O)O)nc(C)c([C@H](OC(C)(C)C)C(=O)O)c3N3CCC(C)(C)CC3)ccc2C1 [Example 116, (S)-5-(tert-Butoxy(carboxy)methyl)-3-(2-(2-chloro-6-methylbenzyl)-1,2,3,4-tetrahydroisoquinolin-6-yl)-4-(4,4-dimethylpiperidin-1-yl)-6-methylpicolinic Acid]",EC50,4 nM
"Cc1nc(C)c([C@H](OC(C)(C)C)C(=O)O)c(N2CCC(C)(C)CC2)c1-c1ccc2c(c1)CCN(c1cc(N3CCOCC3)ncn1)C2 [Example 119, (S)-2-(tert-Butoxy)-2-(4-(4,4-dimethylpiperidin-1-yl)-2,6-dimethyl-5-(2-(6-morpholinopyrimidin-4-yl)-1,2,3,4-tetrahydroisoquinolin-6-yl)pyridin-3-yl)acetic Acid]",EC50,5 nM
